Test results: paper PMC9133232 (Cell chemical biology, 2022)
Where two headings read alike, the source gives them in different places.

Columns and labels:
WT HCMV Pr = target: T1, WT HCMV Pr (Human cytomegalovirus, UniProt P16753, A143V/A209V); assay: biochemical; assay type: biochemical
T1 sequence (P16753 1-256 A143V/A209V): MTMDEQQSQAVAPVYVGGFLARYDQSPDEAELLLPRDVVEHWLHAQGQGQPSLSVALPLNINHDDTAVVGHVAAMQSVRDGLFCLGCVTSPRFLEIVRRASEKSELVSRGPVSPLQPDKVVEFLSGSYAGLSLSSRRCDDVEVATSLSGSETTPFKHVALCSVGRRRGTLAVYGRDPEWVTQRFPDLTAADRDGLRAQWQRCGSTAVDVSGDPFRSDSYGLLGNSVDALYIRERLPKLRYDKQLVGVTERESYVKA

HCMV C-A [1] = target: T2, HCMV C-A (Human cytomegalovirus, UniProt P16753, A143V/A209V/C138A/C202A/C84A/C87A); assay: biochemical
[2] = target: HCMV C-A (HCMV Pr C84A, C87A, C138A, C202A) (Human cytomegalovirus, UniProt P16753, A143V/A209V/C138A/C202A/C84A/C87A); assay: biochemical
HCMV C-A [3] = target: T2, HCMV C-A; settings: for t1/2 HCMV C-A: 0.693 divided by kinact
HCMV C-A (C161) [4] = target: T3, HCMV C-A (C161) (Human cytomegalovirus, UniProt P16753, A143V/A209V/C138A/C202A/C84A/C87A); assay type: binding; settings: intact protein LC/MS
HSV1 Pr = HSV1 Pr (Human herpesvirus 1, UniProt P10210); assay: Fluorogenic substrate inhibition assay, HSV1 Pr; assay type: biochemical
EBV Pr = assay: Fluorogenic substrate inhibition assay, EBV Pr; assay type: biochemical, Epstein-Barr virus; settings: read-out: IC50 EBV Pr; one hour incubation
HCMV C-A (C161) [5] = target: T3, HCMV C-A (C161); assay type: binding; settings: 5 μM protein in Tris, 50 μM compound, overnight
HCMV C-A [6] = target: T2, HCMV C-A; assay: In-gel fluorescence competition assay in HFF-1 cell lysate; assay type: binding
HCMV C-A S225M [7] = target: T4, HCMV C-A S225M (Human cytomegalovirus, UniProt P16753, A143V/A209V/C138A/C202A/C84A/C87A/S225M); assay: Time-course inhibitor labeling by intact protein LC/MS, HCMV C-A S225M dimer; assay type: binding; settings: time course in the absence of DTT
HFF-1 cells [8] = assay: Cell death three days post-reinfection; assay type: cell-based, human
HCMV C-A S225M [9] = target: T4, HCMV C-A S225M; assay: KI and kinact determination, HCMV C-A S225M; assay type: biochemical
HFF-1 cells [10] = assay: Cytotoxicity determined in parallel to antiviral EC50; settings: over the course of the antiviral assay
HCMV C-A [11] = target: T2, HCMV C-A; assay: Time-course inhibitor labeling by intact protein LC/MS, HCMV C-A; assay type: binding; settings: time course in the absence of DTT
HCMV C-A [12] = target: T2, HCMV C-A; assay: In-gel fluorescence direct detection assay in HFF-1 cell lysate; assay type: binding; settings: read-out: EC50 reactivity with HCMV C-A (direct in-gel fluorescence); HFF-1 cell lysates
[13] = target: Human Cytomegalovirus Protease C84A, C87A, C138A, C202A, S225M (human cytomegalovirus) (UniProt P16753); assay: SEC

Row | Compound | IC50 (WT HCMV Pr) | Ki (HCMV C-A [1]) | IC50 [2] | kinact HCMV C-A (HCMV C-A [3]) | kinact/KI HCMV C-A (HCMV C-A [3]) | t1/2 HCMV C-A (HCMV C-A [3]) | IC50 (HSV1 Pr) | IC50 (EBV Pr) | other results
1 | O=C(CCl)Cn1cc(-c2ccccc2)nn1 [Compound 31, 1-Chloro-3-(4-phenyl-1H-1,2,3-triazol-1-yl)propan-2-one] | 33 µM | 38 µM | 25 µM | 0.026 min⁻¹ | 11.3 M⁻¹ s⁻¹ | 26 min | – | – | reactivity with C161 (labeling of HCMV C-A) (HCMV C-A (C161) [4]): showed reactivity with C161
2 | O=C(CCl)Cn1cc(-c2ccc([N+](=O)[O-])cc2)nn1 [Compound 34, 1-Chloro-3-(4-(4-nitrophenyl)-1H-1,2,3-triazol-1-yl)propan-2-one] | 6 µM | – | 22 µM | – | – | – | 51 µM | – | –
3 | N#Cc1ccc(-c2cn(CC(=O)CCl)nn2)cc1 [Compound 35, 4-(1-(3-Chloro-2-oxopropyl)-1H-1,2,3-triazol-4-yl)benzonitrile] | 11 µM | – | 33 µM | – | – | – | 207 µM | 21 µM | –
4 | O=C(CCl)Cn1cc(-c2ccc(Br)cc2)nn1 [Compound 36, 1-(4-(4-Bromophenyl)-1H-1,2,3-triazol-1-yl)-3-chloropropan-2-one] | 5 µM | – | 25 µM | – | – | – | 35 µM | 17 µM | –
5 | O=C(CCl)Cn1cc(-c2ccc(Cl)cc2)nn1 [Compound 37, 1-Chloro-3-(4-(4-chlorophenyl)-1H-1,2,3-triazol-1-yl)propan-2-one] | 5 µM | – | 32 µM | – | – | – | 98 µM | 11 µM | –
6 | O=C(CCl)Cn1cc(-c2cccc(Cl)c2)nn1 [Compound 38, 1-Chloro-3-(4-(3-chlorophenyl)-1H-1,2,3-triazol-1-yl)propan-2-one] | 6 µM | – | 30 µM | – | – | – | 145 µM | 8 µM | –
7 | CC(=O)Nc1cccc(-c2cn(CC(=O)CCl)nn2)c1 [Compound 39, N-(3-(1-(3-Chloro-2-oxopropyl)-1H-1,2,3-triazol-4-yl)phenyl)acetamide] | 18 µM | – | 46 µM | – | – | – | 188 µM | 52 µM | –
8 | CNC(=O)OCc1c(-c2ccccc2)nnn1CC(=O)CCl [Compound 41, (1-(3-Chloro-2-oxopropyl)-4-phenyl-1H-1,2,3-triazol-5-yl)methyl methylcarbamate] | 68 µM | – | 60 µM | – | – | – | > 1000 µM | 7 µM | –
9 | CN(C)C(=O)OCc1c(-c2ccccc2)nnn1CC(=O)CCl [Compound 42, (1-(3-Chloro-2-oxopropyl)-4-phenyl-1H-1,2,3-triazol-5-yl)methyl dimethylcarbamate] | 33 µM | – | 101 µM | – | – | – | > 1000 µM | – | –
10 | O=C(CCl)Cn1nnc(-c2ccccc2)c1COC(=O)NCc1ccccc1 [Compound 43, (1-(3-Chloro-2-oxopropyl)-4-phenyl-1H-1,2,3-triazol-5-yl)methyl benzylcarbamate] | 4 µM | 9 µM | 33 µM | 0.024 min⁻¹ | 45 M⁻¹ s⁻¹ | 29 min | > 1000 µM | 2 µM | labeling of HCMV C-A at C161 (HCMV C-A (C161) [5]): 100%; EC50 (HCMV C-A [6]): 3 µM; final protein labeling HCMV C-A S225M (HCMV C-A S225M [7]): 100%; cell death three days post-reinfection (HFF-1 cells [8]): minimal; kinact HCMV C-A S225M (HCMV C-A S225M [9]): 0.011 min⁻¹; CC50 in parallel to antiviral EC50 (HFF-1 cells [10]): 11 μΜ; final protein labeling HCMV C-A (HCMV C-A [11]): 100%
11 | COCCNC(=O)OCc1c(-c2ccccc2)nnn1CC(=O)CCl [Compound 44, (1-(3-Chloro-2-oxopropyl)-4-phenyl-1H-1,2,3-triazol-5-yl)methyl (2-methoxyethyl)carbamate] | 13 µM | 29 µM | 54 µM | 0.022 min⁻¹ | 12.7 M⁻¹ s⁻¹ | 31 min | 840 µM | 12 µM | –
12 | O=C(CCl)Cn1nnc(-c2ccccc2)c1COC(=O)N1CCOCC1 [Compound 45, (1-(3-Chloro-2-oxopropyl)-4-phenyl-1H-1,2,3-triazol-5-yl)methyl morpholine-4-carboxylate] | 53 µM | 26 µM | 66 µM | 0.020 min⁻¹ | 12.8 M⁻¹ s⁻¹ | 35 min | 670 µM | 4 µM | –
13 | O=C(CCl)Cn1nnc(-c2ccccc2)c1COC(=O)NCCN1CCOCC1 [Compound 46, (1-(3-Chloro-2-oxopropyl)-4-phenyl-1H-1,2,3-triazol-5-yl)methyl (2-morpholinoethyl)carbamate] | – | – | 182 µM | – | – | – | – | – | –
14 | O=C(CCl)Cn1nnc(-c2ccccc2)c1COC(=O)NCCCN1CCCC1=O [Compound 47, (1-(3-Chloro-2-oxopropyl)-4-phenyl-1H-1,2,3-triazol-5-yl)methyl (3-(2-oxopyrrolidin-1-yl)propyl)carbamate] | – | 21 µM | 135 µM | 0.016 min⁻¹ | 12.7 M⁻¹ s⁻¹ | 44 min | – | – | –
15 | C#CCNC(=O)OCc1c(-c2ccccc2)nnn1CC(=O)CCl [Compound 48] | – | – | – | – | – | – | – | – | IC50 (WT HCMV Pr; read-out: IC50 WT HCMV Pr, one hour incubation): 8 µM; EC50 (HCMV C-A [12]): 4 µM
16 | Human Cytomegalovirus Protease C84A, C87A, C138A, C202A, S225M (from UniProt P16753 1-256) (enzyme) | – | – | – | – | – | – | – | – | stoichiometry N [13]: 2
